{
  "source": "PubChem BioAssay (NCI)",
  "experiment_in_all_cases": "NCI anticancer screen, dose series, 48 h",
  "key": {"A498 renal": {"tested_on": "A498 renal"}, "CCRF-CEM leukemia": {"tested_on": "CCRF-CEM leukemia"}, "K-562 leukemia": {"tested_on": "K-562 leukemia"}, "HCT-116 colon": {"tested_on": "HCT-116 colon"}, "HOP-92 NSCLC": {"tested_on": "HOP-92 NSCLC"}, "TK-10 renal": {"tested_on": "TK-10 renal"}, "MDA-MB-435": {"tested_on": "MDA-MB-435"}, "786-0 renal": {"tested_on": "786-0 renal"}, "EKVX NSCLC": {"tested_on": "EKVX NSCLC"}, "UACC-257 melanoma": {"tested_on": "UACC-257 melanoma"}, "SR leukemia": {"tested_on": "SR leukemia"}, "A549 NSCLC": {"tested_on": "A549 NSCLC"}, "ACHN renal": {"tested_on": "ACHN renal"}, "SF-295 CNS": {"tested_on": "SF-295 CNS"}, "MOLT-4 leukemia": {"tested_on": "MOLT-4 leukemia"}, "NCI-H23 lung": {"tested_on": "NCI-H23 lung"}, "U251 CNS": {"tested_on": "U251 CNS"}, "SF-268 CNS": {"tested_on": "SF-268 CNS"}, "SN12C renal": {"tested_on": "SN12C renal"}, "DU-145 prostate": {"tested_on": "DU-145 prostate"}, "UO-31 renal": {"tested_on": "UO-31 renal"}, "OVCAR-3 ovarian": {"tested_on": "OVCAR-3 ovarian"}, "T-47D breast": {"tested_on": "T-47D breast"}, "HCC-2998 colon": {"tested_on": "HCC-2998 colon"}, "RPMI-8226 leukemia": {"tested_on": "RPMI-8226 leukemia"}, "NCI-H522 lung": {"tested_on": "NCI-H522 lung"}, "SW-620 colon": {"tested_on": "SW-620 colon"}, "OVCAR-8 ovarian": {"tested_on": "OVCAR-8 ovarian"}, "OVCAR-5 ovarian": {"tested_on": "OVCAR-5 ovarian"}, "XF 498 CNS": {"tested_on": "XF 498 CNS"}, "RXF-631 renal": {"tested_on": "RXF-631 renal"}, "LOX IMVI melanoma": {"tested_on": "LOX IMVI melanoma"}, "SK-MEL-28 melanoma": {"tested_on": "SK-MEL-28 melanoma"}, "NCI-H460 lung": {"tested_on": "NCI-H460 lung"}, "HCT-15 colon": {"tested_on": "HCT-15 colon"}, "SF-539 CNS": {"tested_on": "SF-539 CNS"}, "DMS 114 small cell lung": {"tested_on": "DMS 114 small cell lung"}, "DLD-1 colon": {"tested_on": "DLD-1 colon"}, "CAKI-1 renal": {"tested_on": "CAKI-1 renal"}, "OVCAR-4 ovarian": {"tested_on": "OVCAR-4 ovarian"}, "LXFL 529 NSCLC": {"tested_on": "LXFL 529 NSCLC"}, "SK-MEL-5 melanoma": {"tested_on": "SK-MEL-5 melanoma"}, "M14 melanoma": {"tested_on": "M14 melanoma"}, "HS 578T breast": {"tested_on": "HS 578T breast"}, "HOP-18 NSCLC": {"tested_on": "HOP-18 NSCLC"}, "HL-60(TB) leukemia": {"tested_on": "HL-60(TB) leukemia"}, "RXF 393 renal": {"tested_on": "RXF 393 renal"}, "IGROV1 ovarian": {"tested_on": "IGROV1 ovarian"}, "SK-OV-3 ovarian": {"tested_on": "SK-OV-3 ovarian"}, "HOP-62 NSCLC": {"tested_on": "HOP-62 NSCLC"}, "KM20L2 colon": {"tested_on": "KM20L2 colon"}, "MDA-N": {"tested_on": "MDA-N"}, "COLO 205 colon": {"tested_on": "COLO 205 colon"}, "UACC-62 melanoma": {"tested_on": "UACC-62 melanoma"}, "M19-MEL melanoma": {"tested_on": "M19-MEL melanoma"}, "MCF7 breast": {"tested_on": "MCF7 breast"}, "MALME-3M melanoma": {"tested_on": "MALME-3M melanoma"}, "SNB-19 CNS": {"tested_on": "SNB-19 CNS"}, "KM12 colon": {"tested_on": "KM12 colon"}, "SNB-75 CNS": {"tested_on": "SNB-75 CNS"}, "BT-549 breast": {"tested_on": "BT-549 breast"}, "PC-3 prostate": {"tested_on": "PC-3 prostate"}, "NCI-H226 lung": {"tested_on": "NCI-H226 lung"}, "HT29 colon": {"tested_on": "HT29 colon"}, "DMS 273 small cell lung": {"tested_on": "DMS 273 small cell lung"}, "SK-MEL-2 melanoma": {"tested_on": "SK-MEL-2 melanoma"}, "SNB-78 CNS": {"tested_on": "SNB-78 CNS"}},
  "note": "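Growth conditions: 96-well plates. Treatment: test compound, 48 hours, 5 concentrations. Analysis: linear interpolation between bracketing concentrations; unreached endpoints set to highest concentration. TGI denotes the concentration required for complete inhibition of growth.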",
  "data": [
    {"smiles": "CC[N+]1(C)CCC(O)(c2ccc(OC)cc2)C(C(=O)c2ccc(OC)cc2)C1", "note": "(configuration not stated)", "values": [
      {"measurement": "TGI", "setting": "A498 renal", "value": 32.6, "unit": "µM"},
      {"measurement": "TGI", "setting": "CCRF-CEM leukemia", "value": 4.94, "unit": "µM"},
      {"measurement": "TGI", "setting": "K-562 leukemia", "value": "> 22.4", "unit": "µM"},
      {"measurement": "TGI", "setting": "HCT-116 colon", "value": 28.1, "unit": "µM"},
      {"measurement": "TGI", "setting": "HOP-92 NSCLC", "value": 6.79, "unit": "µM"},
      {"measurement": "TGI", "setting": "TK-10 renal", "value": 20.4, "unit": "µM"},
      {"measurement": "TGI", "setting": "MDA-MB-435", "value": 31.1, "unit": "µM"},
      {"measurement": "TGI", "setting": "786-0 renal", "value": 9.05, "unit": "µM"},
      {"measurement": "TGI", "setting": "EKVX NSCLC", "value": 41.6, "unit": "µM"},
      {"measurement": "TGI", "setting": "UACC-257 melanoma", "value": 35.4, "unit": "µM"},
      {"measurement": "TGI", "setting": "SR leukemia", "value": 5.61, "unit": "µM"},
      {"measurement": "TGI", "setting": "A549 NSCLC", "value": 41.3, "unit": "µM"},
      {"measurement": "TGI", "setting": "ACHN renal", "value": 27.2, "unit": "µM"},
      {"measurement": "TGI", "setting": "SF-295 CNS", "value": 38.9, "unit": "µM"},
      {"measurement": "TGI", "setting": "MOLT-4 leukemia", "value": "> 21.1", "unit": "µM"},
      {"measurement": "TGI", "setting": "NCI-H23 lung", "value": 36.8, "unit": "µM"},
      {"measurement": "TGI", "setting": "U251 CNS", "value": 33, "unit": "µM"},
      {"measurement": "TGI", "setting": "SF-268 CNS", "value": 56, "unit": "µM"},
      {"measurement": "TGI", "setting": "SN12C renal", "value": 32.9, "unit": "µM"},
      {"measurement": "TGI", "setting": "DU-145 prostate", "value": 32.7, "unit": "µM"},
      {"measurement": "TGI", "setting": "UO-31 renal", "value": 33.6, "unit": "µM"},
      {"measurement": "TGI", "setting": "OVCAR-3 ovarian", "value": 22.1, "unit": "µM"},
      {"measurement": "TGI", "setting": "T-47D breast", "value": 33.8, "unit": "µM"},
      {"measurement": "TGI", "setting": "HCC-2998 colon", "value": 34.8, "unit": "µM"},
      {"measurement": "TGI", "setting": "RPMI-8226 leukemia", "value": 5.92, "unit": "µM"},
      {"measurement": "TGI", "setting": "NCI-H522 lung", "value": 3.89, "unit": "µM"},
      {"measurement": "TGI", "setting": "SW-620 colon", "value": 4.82, "unit": "µM"},
      {"measurement": "TGI", "setting": "OVCAR-8 ovarian", "value": 59.4, "unit": "µM"},
      {"measurement": "TGI", "setting": "OVCAR-5 ovarian", "value": 35.3, "unit": "µM"},
      {"measurement": "TGI", "setting": "XF 498 CNS", "value": 23.3, "unit": "µM"},
      {"measurement": "TGI", "setting": "RXF-631 renal", "value": 34.5, "unit": "µM"},
      {"measurement": "TGI", "setting": "LOX IMVI melanoma", "value": 34.3, "unit": "µM"},
      {"measurement": "TGI", "setting": "SK-MEL-28 melanoma", "value": 29.3, "unit": "µM"},
      {"measurement": "TGI", "setting": "NCI-H460 lung", "value": 45, "unit": "µM"},
      {"measurement": "TGI", "setting": "HCT-15 colon", "value": 25.3, "unit": "µM"},
      {"measurement": "TGI", "setting": "SF-539 CNS", "value": 32, "unit": "µM"},
      {"measurement": "TGI", "setting": "DMS 114 small cell lung", "value": 45.9, "unit": "µM"},
      {"measurement": "TGI", "setting": "DLD-1 colon", "value": 8.03, "unit": "µM"},
      {"measurement": "TGI", "setting": "CAKI-1 renal", "value": 11, "unit": "µM"},
      {"measurement": "TGI", "setting": "OVCAR-4 ovarian", "value": 51.2, "unit": "µM"},
      {"measurement": "TGI", "setting": "LXFL 529 NSCLC", "value": 9.76, "unit": "µM"},
      {"measurement": "TGI", "setting": "SK-MEL-5 melanoma", "value": 29.5, "unit": "µM"},
      {"measurement": "TGI", "setting": "M14 melanoma", "value": 21.3, "unit": "µM"},
      {"measurement": "TGI", "setting": "HS 578T breast", "value": 7.43, "unit": "µM"},
      {"measurement": "TGI", "setting": "HOP-18 NSCLC", "value": 32.6, "unit": "µM"},
      {"measurement": "TGI", "setting": "HL-60(TB) leukemia", "value": 8.9, "unit": "µM"},
      {"measurement": "TGI", "setting": "RXF 393 renal", "value": 23.9, "unit": "µM"},
      {"measurement": "TGI", "setting": "IGROV1 ovarian", "value": 41.2, "unit": "µM"},
      {"measurement": "TGI", "setting": "SK-OV-3 ovarian", "value": 33.7, "unit": "µM"},
      {"measurement": "TGI", "setting": "HOP-62 NSCLC", "value": 34.1, "unit": "µM"},
      {"measurement": "TGI", "setting": "KM20L2 colon", "value": 46.2, "unit": "µM"},
      {"measurement": "TGI", "setting": "MDA-N", "value": 31.9, "unit": "µM"},
      {"measurement": "TGI", "setting": "COLO 205 colon", "value": 10.6, "unit": "µM"},
      {"measurement": "TGI", "setting": "UACC-62 melanoma", "value": 38.4, "unit": "µM"},
      {"measurement": "TGI", "setting": "M19-MEL melanoma", "value": 42.4, "unit": "µM"},
      {"measurement": "TGI", "setting": "MCF7 breast", "value": 17.7, "unit": "µM"},
      {"measurement": "TGI", "setting": "MALME-3M melanoma", "value": 17.2, "unit": "µM"},
      {"measurement": "TGI", "setting": "SNB-19 CNS", "value": 47.7, "unit": "µM"},
      {"measurement": "TGI", "setting": "KM12 colon", "value": 31.2, "unit": "µM"},
      {"measurement": "TGI", "setting": "SNB-75 CNS", "value": 27.8, "unit": "µM"},
      {"measurement": "TGI", "setting": "BT-549 breast", "value": 32.3, "unit": "µM"},
      {"measurement": "TGI", "setting": "PC-3 prostate", "value": 31.8, "unit": "µM"},
      {"measurement": "TGI", "setting": "NCI-H226 lung", "value": 34.4, "unit": "µM"},
      {"measurement": "TGI", "setting": "HT29 colon", "value": 15.7, "unit": "µM"},
      {"measurement": "TGI", "setting": "DMS 273 small cell lung", "value": 43.1, "unit": "µM"},
      {"measurement": "TGI", "setting": "SK-MEL-2 melanoma", "value": 34.3, "unit": "µM"},
      {"measurement": "TGI", "setting": "SNB-78 CNS", "value": 41.5, "unit": "µM"}
    ]}
  ]
}
